In the data set the target is T1, HLA-A2.1 multimers (Homo sapiens, UniProt P04439, D140Y/D185E/D98H/E176V/E277Q/G131W/G231S/I119V/I121R/I166T/I218V/N151K/N90K/P208A/P217A/Q86G/Q94H/R138H/R169H).
T1 construct: made in house
The format is physicochemical.

Consider 2 substances from patent publication US9850287B2, “Means and methods for breaking noncovalent binding interactions between molecules” (Het Nederlands Kanker Instituut, priority 2005, dated 2017).

In the case of GIL*FVFTL (SEQ ID NO:3) [G4*], the “effect of UV exposure on amount of MHC complex recovered” value is listed as “substantial reduction in the amount of MHC complex recovered”.
Next, GILGFVF*L (SEQ ID NO:4) [T8*]: “substantial reduction in the amount of MHC complex recovered”.
